Assay results: patent US20130165489A1, “Small Molecule Modulators of HIV-1 Capsid Stability and Methods Thereof” (The Trustees of the University of Pennsylvania, priority 2010, published 2013)
“Also recorded” adds a separate entry of the source.

What was measured:
CANTD = CANTD (Human immunodeficiency virus type 1 group M subtype B, UniProt P12493); settings: binding to CANTD; read-out: equilibrium dissociation constant (KD); cited from earlier work
HIV-1IIIB = experiment: Anti-HIV efficacy in P4-R5 MAGI cells; assay type: cell-based
Method: P4-R5 MAGI cells (NIH AIDS Research & Reference Reagent Program, catalog #3580) were maintained in Dulbecco's Modified Eagle's Media (DMEM) supplemented with 10% fetal bovine serum (FBS), sodium bicarbonate (0.05%), antibiotics (penicillin, streptomycin, and kanamycin at 40 μg/mL each), and puromycin (1 μg/mL). Initial studies were performed using the HIV-1-susceptible P4-R5 MAGI reporter cell line. HIV-1 infection of these cells (which express CD4, CXCR4, and CCR5) results in LTR-directed β-galactosidase expression, which can be readily and accurately quantitated. Approximately 18 h prior to the experiment, P4-R5 MAGI cells were plated at a concentration of 1.2×10^4 cells/well in a flat-bottom 96-well plate. On the day of the experiment, cells were infected in quadruplicate with HIV-1 strain IIIB (Advanced Biotechnologies, Inc., Columbia, Md.) in the presence or absence of putative CA inhibitors at the indicated concentrations. After 48 h incubation at 37° C., cells were assayed for infection using the Galacto-Star One-Step β-Galactosidase Reporter Gene Assay System (Applied Biosystems, Bedford, Mass.).

[1] = test system: HIV-1 92BR030 (subtype B clinical isolate); experiment: Anti-HIV efficacy in human PBMCs, isolate 92BR030; assay type: cell-based; settings: primary PBMCs
Method: HIV human peripheral blood mononuclear cell (PBMC) assays were performed as described previously (Lanier et al., 2010, Antimicrob. Agents Chemother. 54:2901-09; Ptak et al., 2008, Antimicrob. Agents Chemother. 52:1302-17). Briefly, fresh PBMCs, seronegative for HIV and hepatitis B virus (HBV), were isolated from blood samples of the screened donors (Biological Specialty Corporation, Colmar, Pa.) by using lymphocyte separation medium (LSM; density, 1.078±0.002 g/ml; Cellgro; Mediatech, Inc.) by following the manufacturer's instructions. Cells were stimulated by incubation in 4 μg/mL phytohemagglutinin (PHA; Sigma) for 48 to 72 h. Mitogenic stimulation was maintained by the addition of 20 U/mL recombinant human interleukin-2 (rhIL-2; R&D Systems, Inc.) to the culture medium. PHA-stimulated PBMCs from at least two donors were pooled, diluted in fresh medium, and added to 96-well plates at 5×10^4 cells/well. Cells were infected (final multiplicity of infection [MOI] of ≅0.1) in the presence of 9 different concentrations of test compounds (triplicate wells/concentration) and incubated for 7 days. To determine the level of virus inhibition, cell-free supernatant samples were collected for analysis of reverse transcriptase activity (Buckheit Jr., et al., 1991, AIDS Res. Hum. Retroviruses 7:295-302). Following removal of supernatant samples, compound cytotoxicity was measured by the addition of 3-(4,5-dimethylthiazol-2-yl)-5-(3-carboxymethoxyphenyl)-2-(4-sulfophenyl)-2H-tetrazolium (MTS; CellTiter 96 reagent; Promega) by following the manufacturer's instructions.
79:6089-6101; Jagodzinski et al., 2000, J. Clin. Microbiol. 38:1247-49; Michael et al., 1999, J. Clin. Microbiol. 37:2557-63 and Vahey et al., 1999, J. Clin. Microbiol. 37:2533-37); HIV-1 Group M isolate 931N101 (Subtype C, CCR5-tropic) from Dr. Robert Bollinger and the UNAIDS Network for HIV Isolation and Characterization (Gao et al., 1994, AIDS Res. Hum. Retroviruses 10:1359-68); HIV-1 Group M isolate CMUO8 (Subtype E, CXCR4-tropic) from Dr. Kenrad Nelson and the UNAIDS Network for HIV Isolation and Characterization (Gao et al., 1994, AIDS Res. Hum. Retroviruses 10:1359-68); HIV-1 Group M isolate G3 (Subtype G, CCR5-tropic) from Alash'le Abimiku (Abimiku et al., 1994, Aids Res. Hum. Retrovir. 10:1581-83); HIV-1 Group 0 isolate BCF02 (CCR5-tropic) from Sentob Saragosti, Françoise Brun-Vézinet, and François Simon (Loussertajaka et al., 1995, J. Virol. 69:5640-49); and SIV isolate Mac251 from Dr. Ronald Desrosiers (Daniel et al., 1985, Science 228:1201-04).

DENV (serotypes 1-4) = experiment: CPE assay, Dengue serotypes 1-4; assay type: cell-based, Dengue virus; settings: Dengue virus; Vero cells; read-out: average half-maximal inhibitory concentration over DENV serotypes 1-4
DENV1 = experiment: CPE assay, DENV1; assay type: cell-based; settings: Dengue virus, DENV1, Vero C1008; Vero E6 cells; 3 replicates
DENV2 [2] = experiment: CPE assay, DENV2; assay type: cell-based; settings: Dengue virus, DENV2, Vero C1008; Vero E6 cells; 3 replicates
DENV3 = experiment: CPE assay, DENV3; assay type: cell-based; settings: Dengue virus, DENV3, Vero C1008; Vero E6 cells; 3 replicates
DENV4 = experiment: CPE assay, DENV4; assay type: cell-based; settings: Dengue virus, DENV4, Vero C1008; Vero E6 cells; 3 replicates
RSV = experiment: CPE assay, RSV; assay type: cell-based, respiratory syncytial virus
in vitro = assay type: cell-based; settings: hamster
West Nile virus (WNV) = experiment: West Nile Virus virus-like particle (VLP) assay on Vero cells; assay type: cell-based; settings: 24 hr, firefly luciferase reporter, 2 replicates
Method: (§1) The activity of CMPD-A against a high-priority flaviviral pathogen, West Nile virus (WNV), was evaluated. The compound was tested in a West Nile Virus, virus-like particle (VLP) assay, which is a 24 hr assay on Vero cells using a firefly luciferase reporter to measure viral replication activity. In these tests IC50 values of 30 (±13) μM were obtained, with no toxicity at 100 μM using either both MTT or a renilla luciferase cellular assay (FIG. 16).

Vero cells [3] = assay type: cell-based; settings: at 100 μM; MTT or renilla luciferase cellular assay
Method: as §1

producer cells (293T) = assay type: cell-based, human
Description: Moreover, these compounds appeared to be working at different stages of the viral life-cycle—one at an early post-entry event (CMPD-A) and the other at an assembly or post-integration event in HIV-1 replication (CMPD-D).

Vero cells [4] = settings: over the concentration range tested
DENV2 [5] = experiment: DENV2 focus reduction assay using BHK cells; settings: Dengue virus, read-out: average IC50, DENV2 focus reduction
[6] = test system: recombinant luciferase-expressing HIV-1 bearing the envelope glycoprotein of the HIV-1YU-2 strain; experiment: Single-round infection assay, HIV-1 with YU-2 envelope on Cf2Th-CCR5 cells; settings: for activity in the single-round infection assay: Cf2Th-CCR5 cells, YU-2 envelope
[7] = Single-round infection assay, infection of U87 CD4-CXCR4 target cells in presence of compound; settings: Human immunodeficiency virus 1, U87.CD4.CXCR4, read-out: IC50 against HIV-1
[8] = test system: single-round competent HIV-1NL4-3 virus; experiment: Single-round assay, production of infectious virus from compound-treated producer cells
HIV-1NL4-3 CA = HIV-1NL4-3 CA (Human immunodeficiency virus type 1 group M subtype B, UniProt P12493); experiment: Surface plasmon resonance direct binding to HIV-1 CA; settings: SPR
Method: Interaction analyses were performed on a Biacore 3000 optical biosensor (Biacore, Piscataway Township, NJ) with simultaneous monitoring of two flow cells Immobilization of the CA protein to CM7 sensor chips was performed following the standard amine coupling procedure according to the manufacturer's specifications. Briefly, carboxyl groups on the sensor chip surface were activated by injection of 50 μL of a solution containing 0.2 M EDC (1-ethyl-3-[3-dimethylamino-propyl]carbodiimide hydrochloride) and 0.05 M NHS(N-hydroxysuccinimide) at a flow rate of 5 μL min^−1. Next, the 50 μL of CA protein at a concentration of 6 μM in pH 5.0, 10 mM sodium acetate buffer was passed over the chip surface at 25° C. at a flow rate of 5 μL min^−1 Then, after unreacted protein had been washed out, excess active ester groups on the sensor surface were capped by the injection of 50 μL of 1 M ethanolamine (pH 8.0) at a flow rate of 5 μL min^−1. A reference surface with the nonspecific anti-gp120 antibody 17b (Thali et al., 1993, J. Virol. 67:3978-88) immobilized was generated at the same time under the same conditions and was used as background to correct nonspecific binding and for instrument and buffer artifacts.
Stock solutions of CMPD-E and CMPD-F were prepared by dissolving the compounds in 100% dimethyl sulfoxide (DMSO) to a final concentration of 10 mM. To prepare the sample for analysis, 30 μL of the compound stock solution was added to sample preparation buffer (25 mM Tris-HCl, 150 mM NaCl, pH 7.5) to a final volume of 1 mL and mixed thoroughly. Preparation of analyte in this manner ensured that the concentration of DMSO was matched with that of running buffer with 3% DMSO. Lower concentrations of each compound were then prepared by twofold serial dilutions into running buffer (25 mM Tris-HCl, 150 mM NaCl, 3% DMSO, pH 7.5). These compound dilutions were then injected over the control and CA surfaces at a flow rate of 50 μL min^−1, for a 2-min association phase, followed by a 5-min dissociation phase. […]

In the case of `Cc1ccc(NC(=O)NCCSCc2ccc(CN(C)C)o2)cc1Cl` [CAP-1, N-(3-chloro-4-methylphenyl)-N′-[2-[([5-[(dimethylamino)-methyl]-2-furyl]-methyl)-sulfanyl]ethyl]urea], the Kd (CANTD) is listed as about 800 µM.

For `O=C(O)c1ccc(-c2nc(-c3ccc4oc5ccc(-c6nc(-c7ccc(C(=O)O)cc7)[nH]c6-c6ccccc6)cc5c4c3)c(-c3ccccc3)[nH]2)cc1` [CMPD-A, 4,4′-(4,4′-(dibenzo[b,d]furan-2,8-diyl)bis(5-phenyl-1H-imidazole-4,2-diyl))dibenzoic acid], the IC50 (HIV-1IIIB; Human immunodeficiency virus 1, fully infectious virus, P4-R5 MAGI cell line, read-out: IC50 for replication of HIV-1IIIB) was 89 ± 3.2 µM, the “inhibition of HIV-1IIIB replication” value (HIV-1IIIB; P4-R5 MAGI cells) was “retained the ability to inhibit” and the “inhibition of HIV-1 92BR030 replication in PBMCs” value [1] was “displayed no activity; also recorded: unable to inhibit; also recorded: did not affect replication”. The IC50 (DENV (serotypes 1-4)) was 4.95 µM, the IC50 (DENV1) was 8.35 µM and the IC50 (DENV2 [2]) was 1.43 µM. The IC50 (DENV3) was 7.66 µM, the IC50 (DENV4) was 2.37 µM and the “activity against RSV” value (RSV; CPE assay, up to 100 μM) was “active against RSV”. The IC50 (RSV; human respiratory syncytial virus, RSV, Vero cells) was 10.2 µM, the CC50 (in vitro) was 35 µM and the IC50 (West Nile virus (WNV)) was 30 µM. For the same molecule, the “toxicity” value (Vero cells [3]) was “no toxicity”, the “LDH release versus untreated cells” value (producer cells (293T)) was “Neither CMPD-A nor CMPD-D promoted LDH release” and the “cellular toxicity against the Vero cells” value (Vero cells [4]) was “no cellular toxicity”. The IC50 (DENV2 [5]) was 1.25 µM, the IC50 ([6]; Human immunodeficiency virus 1, Cf2Th-CCR5, read-out: IC50 against HIV-1 (single-round infection)) was 33.3 ± 0.31 µM and the IC50 [7] was 33.6 ± 0.31 µM.

For `COC(=O)c1ccc(-c2nc(-c3ccc4oc5ccc(-c6nc(-c7ccc(C(=O)OC)cc7)[nH]c6-c6ccccc6)cc5c4c3)c(-c3ccccc3)[nH]2)cc1` [CMPD-B, dimethyl 4,4′-(4,4′-(dibenzo[b,d]furan-2,8-diyl)bis(5-phenyl-1H-imidazole-4,2-diyl))dibenzoate], the “activity in the single-round infection assay” value [6] was “lost all activity”.

For `O=C(O)c1ccc(-c2nc(-c3ccccc3)c(-c3ccc4oc5ccccc5c4c3)[nH]2)cc1` [CMPD-C, 4-(5-(dibenzo[b,d]furan-2-yl)-4-phenyl-1H-imidazol-2-yl)benzoic acid], the “activity in the single-round infection assay” value [6] was “retained the activity of the parental molecule”.

For `Cc1ccc(C(C(=O)NC2CCCCC2)N(Cc2ccccc2Cl)C(=O)c2snc(C(=O)NC3CCCCC3)c2N)o1` (stereo not shown) [CMPD-D, 4-amino-N5-(2-chlorobenzyl)-N3-cyclohexyl-N5-(2-(cyclohexylamino)-1-(5-methylfuran-2-yl)-2-oxoethyl)isothiazole-3,5-dicarboxamide], the “LDH release versus untreated cells” value (producer cells (293T)) was “Neither CMPD-A nor CMPD-D promoted LDH release”, the “activity in the single-round infection assay” value [6] was “not to have any effect on HIV-1 infection” and the “antiretroviral activity, assembly or post-integration event” value [8] was “significant antiretroviral activity”.

With `CC1(C)CC(NC(=O)C(=O)Nc2ccc(Cl)cc2)CC(C)(C)N1` [CMPD-F, N1-(4-chlorophenyl)-N2-(2,2,6,6-tetramethylpiperidin-4-yl)oxalamide, reference compound] the “interaction with sensor-chip immobilized HIV-1 CA” value (HIV-1NL4-3 CA) was “displayed no such interaction”.
